What was measured:
Male SD rats [1] = assay: Arteriovenous shunt model in rats; assay type: in vivo, rat; parameters: concentration or dose not given beside the values; details: rats given orally 2-4 hours before shunt opened; shunt 15 minutes; thrombus weight, treated vs. mean vehicle
Description: III. Arteriovenous Shunt Model in Rats
Two 10 cm-long polyethylene tubings (1.50 and 2.88 mm of inner and outer diameter, respectively) linked to a central part (8 cm-long, 2.11 and 3.77 mm of inner and outer diameter, respectively) containing a 6 cm silk thread and filled with heparin (3.125 U/ml) were placed between the right carotid artery and the left jugular vein in rats.
Male SD rats were anesthetized by intraperitoneal injection of 10% chloral hydrate after oral dose, inverted fixation, then the right catotid artery and left vena jugularis externa were isolated, the proximal and distal sutures of catotid artery were tied. The syringe needle were cannulated into the catotid artery and fasted, the other of the tube was cannulated into the right vena jugularis externa. Rats were given orally 2-4 hours before the shunt was opened. Blood flowed from the right carotid artery into the polyethylene tubing and then return to left vena jugularis externa. The shunt was then disconnected 15 minutes later and the silk thread covered with thrombus was immediately withdrawn and weighed. The wet weight of the thrombus was determined. Then the silk thread was dried at 60° C. for 4 h to get the dry weight of the thrombus. The anti-thrombotic effects of these agents were expressed as percentage inhibition of thrombus formation based on the treated vs. the corresponding mean vehicle.

Male SD rats [2] = assay: Rat tail bleeding model; assay type: in vivo; details: rat tail transected 0.5 to 4 hours after administration; prolongation = ratio of treated vs. mean vehicle value; relative to apixaban
Method: II Rat Tail Bleeding Model
Male SD rats were allocated randomly and administrated. After the administration, the rats were anesthetized by intraperitoneal injection of 10% chloral hydrate. At the time point of 0.5 to 4 hours (Tmax in PK) after the administration, the tails of anesthetized rats were transected 3 mm from the tip and vertically immersed in saline at 37° C. The time point when the continuous blood flow ceased for >30 s was measured. The prolongation of bleeding time was expressed as a ratio of treated vs. the mean vehicle value. Effects of compounds were determined as described below.

Factor Xa = target: T1, Factor Xa (Homo sapiens, UniProt P00742); assay: Anti-Factor Xa activity assay (chromogenic substrate CS-11(22)); assay type: biochemical; details: ratio of compound IC50 to apixaban IC50; Factor Xa 0.1 U/ml, absorbance at 405 nm, 37° C.
T1 construct: purchased MERK
Method: I. Anti-Factor Xa Activity Assay
Substrate: CS-1122 (Hyphen)
Buffer: 50 mM TrisHCl, 150 mM NaCl, PH8.3
100 μL of buffer, 50 μL of different concentrations of compounds (diluted with buffer) and 50 μl of 0.1 U/ml Factor Xa enzyme (diluted with buffer) were added to a 96-well plate. After 15 min of exposure, 50 μL of chromogenic substrate 2.5 mg/ml CS-11 (22) was added. The substrate hydrolysis was monitored by measuring absorbance at 405 nm at 37° C. for up to 30 min (interval: 30 seconds) using a microplate spectrophotometer. IC50 was calculated by bliss.

T1 sequence (P00742 235-488 limits assumed): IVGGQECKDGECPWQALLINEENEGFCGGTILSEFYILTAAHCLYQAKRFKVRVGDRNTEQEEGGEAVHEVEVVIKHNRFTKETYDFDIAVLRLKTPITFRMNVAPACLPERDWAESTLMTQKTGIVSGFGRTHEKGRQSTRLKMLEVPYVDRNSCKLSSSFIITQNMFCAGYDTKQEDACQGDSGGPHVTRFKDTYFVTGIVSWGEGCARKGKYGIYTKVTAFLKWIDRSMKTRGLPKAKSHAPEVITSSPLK
T1 sequence (P00742 41-179 partner limits assumed): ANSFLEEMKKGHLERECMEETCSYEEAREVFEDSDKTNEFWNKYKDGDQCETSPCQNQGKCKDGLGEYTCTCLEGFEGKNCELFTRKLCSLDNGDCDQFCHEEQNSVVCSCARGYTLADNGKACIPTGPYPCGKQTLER

The Prolongation of bleeding time (compound)/The Prolongation of bleeding time(apixaban) (Male SD rats [2]) | IC50(Compound)/IC50(apixaban) (Factor Xa) | SMILES | Inhibition of thrombus formation (%) (Male SD rats [1])
<1 | <1 | CCOc1ccc(-n2nc(C(N)=O)c3c2C(=O)N(c2ccc(-n4cccc(C)c4=O)cc2)CC3)cc1 [A 28, 1-(4-ethoxyphenyl)-6-(4-(3-methyl-2-oxopyridin-1(2H)-yl)phenyl)-7-oxo-4,5,6,7-tetrahydro-1H-pyrazolo[3,4-c]pyridine-3-carboxamide] | 73.1
<1 | <1 | CCOc1ccc(-n2nc(C(N)=O)c3c2C(=O)N(c2ccc(N4CCCC4=O)c(C)c2)CC3)cc1F [A 36, 1-(3-fluoro-4-ethoxyphenyl)-6-(3-methyl-4-(2-oxopyrrolidin-1-yl)phenyl)-7-oxo-4,5,6,7-tetrahydro-1H-pyrazolo[3,4-c]pyridine-3-carboxamide] | 71.6

From patent US9975893B2, “Pyrazolo[3,4-c]pyridine derivatives” (CSPC ZHONGQI PHARMACEUTICAL TECHNOLOGY (SHIJIAZHUANG) CO., …, priority 2014, dated 2018)
